Experimental data as given in patent US8242118B2, “Arylsulfonamide derivatives for use as CCR3 antagonists in the treatment of inflammatory and immunological disorders” (Axikin Pharmaceuticals Inc., priority 2001, dated 2012).
Where a name gives a salt, the structure may show the parent alone.

Tests used:
[1] = target: T1, Human CCR3 (Homo sapiens, UniProt P51677); assay: Receptor binding assay (RBA), [125I]-eotaxin; conditions: human CCR3-transformed K562 cells, 0.1 nM [125I]-eotaxin; compounds of about 40 to 90% purity; read-out: Activity grade RBA (IC50 class)
T1 construct: The cloned CCR3 cDNA was constructed with pcDNA3 vector and transfected into a IC562 cell line; expressed in transfected cells
T1 sequence (P51677 1-355): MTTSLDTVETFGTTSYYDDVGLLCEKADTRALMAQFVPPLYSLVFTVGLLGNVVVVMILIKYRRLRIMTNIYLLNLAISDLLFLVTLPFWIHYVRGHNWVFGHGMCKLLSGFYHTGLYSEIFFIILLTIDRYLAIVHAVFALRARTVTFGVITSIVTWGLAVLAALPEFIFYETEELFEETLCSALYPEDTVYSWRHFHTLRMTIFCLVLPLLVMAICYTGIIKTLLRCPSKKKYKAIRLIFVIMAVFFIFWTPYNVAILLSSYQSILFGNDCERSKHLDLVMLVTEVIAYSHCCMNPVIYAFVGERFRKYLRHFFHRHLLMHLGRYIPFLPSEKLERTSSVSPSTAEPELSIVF
Method: [Determination of IC50 Values of Compounds in Receptor Binding Assay]
• Human CCR3-transformed K562 cells were used. The cloned CCR3 cDNA was constructed with pcDNA3 vector and transfected into a IC562 cell line. The human CCR3-transformed K562 cells were maintained in RPMI-1640 (Cat.#22400-089, Life Technologies) supplemented with 10% FCS (Cat.#A-1115-L, Hyclone), 55 μM 2-mercaptoethanol (Cat.#21985-023, Life Technologies), 1 mM sodium pyruvate (Cat.#11360-070, Life Technologies), 100 units/ml of penicillin G and 100 μg/ml of streptomycin (Cat.#15140-122, Life Technologies), and 0.4 mg/ml of Geneticin (Cat.#10131-035, Life Technologies)(hereinafter called “culture medium”). Before the receptor binding assay, cells were pretreated with 5 mM sodium butyrate (Cat.#193-01522, Wako)-containing the culture medium (2×10^5 cells/ml) for 20-24 hours to increase the expression of CCR3. (2) Receptor Binding Assay (RBA) • Butyrate-pretreated cells, suspended in binding buffer (25 mM HEPES pH 7.6, 1 mM CaCl2, 5 mM MgCl2, 0.5% BSA, 0.1% NaN3) at a cell density of 2×10^6 cells/ml, were added into 60 μl/well in the 96-well round bottom polypropylene plate (Cat.#3365, Costar). Compounds, diluted with the binding buffer (4-times higher concentration of the final concentration), were added into 30 μl/well in the polypropylene plate. [^125I]-labeled human eotaxin (Cat.#IM290, Amersham Pharmacia Biotech), diluted with the binding buffer at the concentration of 0.4 nM (final concentration; 0.1 nM), was added into 30 μl/well in the polypropylene plate. Total 120 μl/well of binding reaction mixture (60 μl/well of cell suspension, 30 μl/well of compound solution, and 30 μl/well of [^125I]-labeled eotaxin) were incubated in the polypropylene plate for 1 hour at room temperature after the incubation, 100 μl/well of the reaction mixture was transferred to a filtration plate (Cat.#MAFB-N0B, Millipore), and washed with the washing buffer (25 mM HEPES pH 7.6, 1 mM CaCl2, 5 mM MgCl2, 0.5% BSA, 0.1% NaN3, 0.5 M NaCl) twice. The 96-well filtration plate was pretreated with 100 μl/well of 0.5% polyethylenimine (Cat.#P-3143, Sigma) for 2-4 hours at room temperature and washed with the washing buffer twice before use. The non-specific binding was determined by parallel incubation in the presence of 500 nM of non-labeled eotaxin (Cat.#23209, Genzyme Techne). The radioactivities remained on the filter were measured by liquid scintillation counter (TopCount™, Packard) after an addition of 45 μl/well of scintillant (Microscint20, Cat.#6013621, Packard). The inhibition percent at each concentration of compound was calculated, and IC50 values were determined from the inhibition curve. [Determination of IC50 Values of Compounds in Calcium Mobilization Assay] (IC50 Ca2+) (1) Cell • Human CCR3-transformed K562 cells were used. The human CCR3-transformed K562 cells were maintained in RPMI-1640 supplemented with 10% FCS, 55 μM 2-mercaptoethanol (Cat.#21985-023, Life Technologies), 1 mM sodium pyruvate, 100 units/ml of penicillin G and 100 μg/ml of streptomycin and 0.4 mg/ml of Geneticin. Before the calcium mobilization assay, cells were pretreated with 5 mM sodium butyrate-containing the culture medium (2×10^5 cells/ml) for 20-24 hours to increase the expression of CCR3. (2) Calcium Mobilization Assay • Butyrate-pretreated cells were loaded with Fluo-3AM (Cat.#F-1242, Molecular Probes) in loading buffer (Hanks' solution Cat.#05906 Nissui, 20 mM HEPES pH 7.6, 0.1% BSA, 1 mM probenecid Cat.#P-8761 Sigma, 1 μM Fluo-3AM, 0.01% pluronic F-127 Cat.#P-6866 Molecular Probes) at a cell density of 1×10^7 cells/ml. Then, cells were washed with calcium assay buffer (Hanks' solution Cat.#05906 Nissui, 20 mM HEPES pH 7.6, 0.1% BSA, 1 mM Probenecid Cat.#P-8761 Sigma). The cell suspension (3.3×10^6 cells/ml) was added into 60 μl/well in the 96-well clear bottom black plate (Cat.#3904, Costar). […]

Compound	melting point [°C]	IC50 [1] [µM]
O=[N+]([O-])c1ccc(Oc2ccccc2F)c(S(=O)(=O)N2CCNCC2)c1 [Example 1-14]	118 to 120	1 to 10
Cl.O=[N+]([O-])c1ccc(Oc2cccc(F)c2)c(S(=O)(=O)N2CCNCC2)c1 [Example 1-15]	227 to 229	1 to 10
Cc1ccc(Oc2ccc([N+](=O)[O-])cc2S(=O)(=O)N2CCNCC2)cc1.Cl [Example 1-16]	188 to 192	> 10
Cc1cccc(Oc2ccc([N+](=O)[O-])cc2S(=O)(=O)N2CCNCC2)c1.Cl [Example 1-17]	242 to 244	< 1
O=[N+]([O-])c1ccc(Oc2cccc(Cl)c2Cl)c(S(=O)(=O)N2CCNCC2)c1 [Example 1-82]	173 to 174	1 to 10
O=[N+]([O-])c1ccc(Oc2ccc(Cl)c(Cl)c2)c(S(=O)(=O)N2CCNCC2)c1 [Example 1-83]	167 to 168	> 10

Other lines, results leading:

melting point [°C]	IC50 [1] [µM]	Compound
	< 1	Cc1cc(C)cc(Nc2ccc([N+](=O)[O-])cc2S(=O)(=O)N2CCNCC2)c1 [Example 3-1, N-(3,5-dimethyl-phenyl)-4-nitro-2-(1-piperazinylsulfonyl)aniline dihydrochloride]
123 to 124	> 10	Cc1cc(C)cc(Oc2ccc([N+](=O)[O-])cc2S(=O)(=O)N2CCN(Cc3ccccc3)CC2)c1 [Example 4-9]
210 to 212	> 10	Cc1cc(C)cc(Oc2ccc([N+](=O)[O-])cc2S(=O)(=O)N2CCN(C=O)CC2)c1 [Example 4-10]
156 to 158	< 1	Cc1cc(C)cc(Oc2ccc([N+](=O)[O-])cc2S(=O)(=O)N2CCC(N3CCCC3)CC2)c1 [Example 4-11]
226	1 to 10	CN(C)c1ccc(NS(=O)(=O)c2cc([N+](=O)[O-])ccc2Oc2cc(Cl)cc(Cl)c2)cc1 [Example 4-25]
161	< 1	N#Cc1ccc(Oc2cc(Cl)cc(Cl)c2)c(S(=O)(=O)N2CCN3CCCC3C2)c1 (centres unmarked) [Example 13-12]
